In ChEMBL document CHEMBL2384902, “Synthesis and ionophoric activities of functionalized bis(choloyl) conjugates with a rigid core” (Bioorg Med Chem Lett, 2013):

Columns and labels:
[1] = Ionophoric activity across egg-yolk L-alpha-phosphatidylcholine-based liposomal membranes (unknown origin) assessed as induction of pH discharge at 0.5 to 3 mol % at internal pH 7 and external aqueous phase pH 8 by pyranine dye-based method; assay type: physicochemical; conditions: artificial membrane
[2] = Ionophoric activity across egg-yolk L-alpha-phosphatidylcholine-based liposomal membranes (unknown origin) assessed as change in fluorescence intensity at 3 mol % by pyranine dye-based method in presence of chloride ions in internal and sulfate ions in external vesicles; assay type: physicochemical; conditions: artificial membrane
[3] = Ionophoric activity across egg-yolk L-alpha-phosphatidylcholine-based liposomal membranes (unknown origin) assessed as induction of pH discharge at internal pH 7 and external aqueous phase pH 8 by pyranine dye-based method; assay type: physicochemical; conditions: artificial membrane
[4] = Ratio of k2 to K for ionophoric activity across egg-yolk L-alpha-phosphatidylcholine-based liposomal membranes (unknown origin)

CC(=O)NCCCCC(NC(=O)CC[C@@H](C)[C@H]1CC[C@H]2[C@@H]3[C@H](O)C[C@@H]4C[C@H](O)CC[C@]4(C)[C@H]3C[C@H](O)[C@]12C)C(=O)NCc1ccc(CNC(=O)C(CCCCNC(C)=O)NC(=O)CC[C@@H](C)[C@H]2CC[C@H]3[C@@H]4[C@H](O)C[C@@H]5C[C@H](O)CC[C@]5(C)[C@H]4C[C@H](O)[C@]23C)cc1 (some centres not stated)
Activity [1]: Active | Activity [2]: Not Active

C[C@H](CCC(=O)NC(CCCCN)C(=O)Nc1ccc(NC(=O)C(CCCCN)NC(=O)CC[C@@H](C)[C@H]2CC[C@H]3[C@@H]4[C@H](O)C[C@@H]5C[C@H](O)CC[C@]5(C)[C@H]4C[C@H](O)[C@]23C)cc1)[C@H]1CC[C@H]2[C@@H]3[C@H](O)C[C@@H]4C[C@H](O)CC[C@]4(C)[C@H]3C[C@H](O)[C@]12C (some centres not stated)
Activity [1]: Active | K [3]: 1.81 ×10⁻² /min | Activity [2]: Not Active | Ratio (10'-4/min.mol%'-4) [4]: 5.5

C[C@H](CCC(=O)NC(CCCCN)C(=O)NCc1ccc(CNC(=O)C(CCCCN)NC(=O)CC[C@@H](C)[C@H]2CC[C@H]3[C@@H]4[C@H](O)C[C@@H]5C[C@H](O)CC[C@]5(C)[C@H]4C[C@H](O)[C@]23C)cc1)[C@H]1CC[C@H]2[C@@H]3[C@H](O)C[C@@H]4C[C@H](O)CC[C@]4(C)[C@H]3C[C@H](O)[C@]12C (some centres not stated)
Activity [1]: Active | K [3]: 1.81 ×10⁻² /min | Activity [2]: Not Active | Ratio (10'-4/min.mol%'-4) [4]: 5.2

C[C@H](CCC(=O)NCc1ccc(CNC(=O)CC[C@@H](C)[C@H]2CC[C@H]3[C@@H]4[C@H](O)C[C@@H]5C[C@H](O)CC[C@]5(C)[C@H]4C[C@H](O)[C@]23C)cc1)[C@H]1CC[C@H]2[C@@H]3[C@H](O)C[C@@H]4C[C@H](O)CC[C@]4(C)[C@H]3C[C@H](O)[C@]12C
Activity [1]: Active | Ratio (10'-5/min.mol%'-4) [4]: 9
